# Assay results from patent US20260085073A1, “PYRAZOLYLCARBOXAMIDE COMPOUNDS AND THEIR USE IN THERAPY” (Hotspot Therapeutics, Inc., priority 2022, published 2026).
# Target: T1, MALT1 (Homo sapiens, UniProt Q9UDY8)
# T1 construct: Avi-tagged FL MALT-1 (Pharmaron, stored at −70° C.); Avi-tag
# T1 sequence (Q9UDY8 1-824): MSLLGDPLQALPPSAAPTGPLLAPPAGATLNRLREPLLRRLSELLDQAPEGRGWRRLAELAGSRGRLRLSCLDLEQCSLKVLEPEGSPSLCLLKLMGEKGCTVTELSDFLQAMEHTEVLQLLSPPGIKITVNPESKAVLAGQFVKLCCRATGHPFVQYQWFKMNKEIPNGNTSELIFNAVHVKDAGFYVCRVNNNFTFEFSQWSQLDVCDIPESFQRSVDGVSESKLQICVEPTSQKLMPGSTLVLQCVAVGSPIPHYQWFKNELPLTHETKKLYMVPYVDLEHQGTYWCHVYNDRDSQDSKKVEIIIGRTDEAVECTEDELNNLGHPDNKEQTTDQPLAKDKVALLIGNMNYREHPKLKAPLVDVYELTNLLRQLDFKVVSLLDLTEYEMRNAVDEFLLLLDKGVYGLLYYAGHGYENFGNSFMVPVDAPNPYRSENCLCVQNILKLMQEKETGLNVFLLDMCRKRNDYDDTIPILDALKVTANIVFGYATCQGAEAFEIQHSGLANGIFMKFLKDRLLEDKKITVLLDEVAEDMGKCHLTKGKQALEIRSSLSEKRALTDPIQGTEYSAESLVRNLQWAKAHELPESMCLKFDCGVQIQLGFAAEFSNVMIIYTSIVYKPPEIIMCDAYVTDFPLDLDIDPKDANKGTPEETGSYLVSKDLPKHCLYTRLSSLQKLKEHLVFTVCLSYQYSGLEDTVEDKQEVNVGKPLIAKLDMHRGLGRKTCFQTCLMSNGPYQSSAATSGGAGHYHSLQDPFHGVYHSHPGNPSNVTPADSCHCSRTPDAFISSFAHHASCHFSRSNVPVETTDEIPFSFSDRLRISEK
# Assay: MALT1 inhibition assay (MALT-1 Fluorogenic Peptide Cleavage Assay, Ac-LRSR-AMC substrate)
# Type: biochemical
# Details: Avi-tagged FL MALT-1, 30 min pre-incubation, 90 min reaction at room temperature, fluorescence intensity
# Method: Example 71—MALT1 Inhibition Assay
# Compounds were tested for ability to bind to MALT1.
# Inhibition of MALT1 activity by the presence of small molecules was evaluated using MALT-1 Fluorogenic Peptide Cleavage Assay. The assay utilizes a quenched AMC-labelled peptide that contains the MALT-1 recognition sequence and cleavage site (LRSR). MALT-1 mediated cleavage of the peptide relieves the quenching and leads to an increase in fluorescence at excitation (342 nm) and emission (441 nm).
# The following reagents were obtained commercially and used to prepare standard reagent formulations as further described below: N-2-hydroxyethylpiperazine-N-2-ethane sulfonic acid (HEPES) (1 M, pH 7.5, stored at 4° C.), sodium citrate (stored at RT), tris(2-carboxyethyl) phosphine hydrochloride (T-CEP) (500 mM, stored at −20° C.), ethylenediaminetetraacetic acid (EDTA) (500 mM, stored at RT), dimethylsulfoxide (DMSO, stored at RT), 3-[(3-cholamidopropyl)dimethylammonio]-1-propane sulphate (CHAPS) (stored at RT), dimethylsulfoxide (DMSO), DMSO (Fisher Scientific, stored at RT), Avi-tagged FL MALT-1 (Pharmaron, stored at −70° C.), Ac-LRSR-AMC Peptide (SM Biochemicals, stored at −20° C.), and ultrapure water (MILLI-QR).
# The standard reagent formulations used in this assay were prepared and stored as follows. A 1.1 M solution of sodium citrate (161.3 g, 500 mL) was prepared and stored at room temperature. A 10% (w/v) CHAPS solution (2.0 g, 20 mL) was prepared and stored at 4° C. A 500 mM HEPES solution having pH of 6.89 was prepared from 200 mL of a 1 M HEPES solution having a pH of 7.5 using concentrated hydrochloric acid and brought to a final volume of 400 mL with MILLI-QR H2O. The substrate, 10 mM Ac-LRSR-AMC Peptide, was prepared (10 mg, 1.370 mL DMSO) and stored at −20° C.
# Compounds were plated to provide a 2% DMSO final concentration using a ProxiPlate-384 Plus F Black 384-shallow well microplate. The assay-ready plates were equilibrated to room temperature. A reaction buffer (30 mL total volume) was prepared by combining HEPES (pH 6.89, 25 mM, 1.5 mL), sodium citrate (660 mM, 18.0 mL), T-CEP (1 mM, 0.06 mL), EDTA ([…], 0.06 mL), CHAPS (0.05%, 0.15 mL), DMSO (2%, 0.6 mL), and MILLI-QR H2O (10.23 mL; 9.63 mL when backfilled to 2% DMSO) followed by thorough mixing. DMSO was added only when compound plates had not been DMSO-backfilled to 2%.
# MALT-1 was thawed and kept on ice. Peptide substrate was thawed on the bench under ambient conditions. A MALT-1 enzyme working stock was prepared from Avi-tagged FL MALT-1 (40 nM in a prepared reagent volume of 16.5 μL) and the reaction buffer (13.0 mL). MALT1 working stock (5 μL) was added to each well of the microplate. MALT-1 was pre-incubated with compounds for 30 minutes at room temperature.
# Two substrate working stocks (Km and 10×Km) were prepared. The 1×Km substrate was prepared from Ac-LRSR-AMC Peptide (50 μM in a prepared reagent volume of 35.0 μL) and the reaction buffer (6.965 mL). The 10×Km substrate was prepared from Ac-LRSR-AMC Peptide (280 μM in a prepared reagent volume of 196.0 μL) and the reaction buffer (6.804 mL). The reaction was initiated by the addition of substrate working stock (5 μL, 50 μM) to Km plates and the addition of substrate working stock (5 μL 280 μM) to 10×Km plates. The plates were covered and incubated on the bench at room temperature for 90 minutes.
# Fluorescence intensity was determined using a CLARIOstar microplate reader (BMG LABTECH) using the optimised AMC mode. Before taking readings, a 70% gain was applied on the neutral control well. Compound data were normalised to % Inhibition and used to plot sigmoidal concentration response curves to yield various parameters including IC50.
row,SMILES,IC50
1,Cn1nc(-c2cccn(C)c2=O)c(C(F)(F)F)c1C(=O)Nc1ccnc(C(F)(F)F)c1 [Compound I-48],> 10 µM
2,Cn1nc(-c2cccc3c2OCCN3)c(C(F)(F)F)c1C(=O)Nc1ccnc(C(F)(F)F)c1 [Compound I-51],> 10 µM
3,Cn1nc(-c2cccc3c2ccn3CC(=O)O)c(C(F)(F)F)c1C(=O)Nc1ccnc(C(F)(F)F)c1 [Compound I-57],> 10 µM
4,Cn1cc2c(-c3nn(C)c(C(=O)Nc4ccnc(C(F)(F)F)c4)c3C(F)(F)F)cccc2n1 [Compound I-62],2.5 to 10 µM
5,Cn1nc(-c2cccc3cnsc23)c(C(F)(F)F)c1C(=O)Nc1ccnc(C(F)(F)F)c1 [Compound I-67],> 10 µM
6,Cn1nc(-c2cnn3ccccc23)c(C(F)(F)F)c1C(=O)Nc1ccnc(C(F)(F)F)c1 [Compound I-69],2.5 to 10 µM
7,Cn1nc(-c2cncc(C#N)c2)c(C(F)(F)F)c1C(=O)Nc1ccnc(C(F)(F)F)c1 [Compound I-70],> 10 µM
8,Cn1nc(-c2cnc3n2CCOC3)c(C(F)(F)F)c1C(=O)Nc1ccnc(C(F)(F)F)c1 [Compound I-71],> 10 µM
9,Cn1nc(-c2ccnc3c2OCO3)c(C(F)(F)F)c1C(=O)Nc1ccnc(C(F)(F)F)c1 [Compound I-72],0.5 to 2.5 µM
10,Cn1nc(-c2csc3ccncc23)c(C(F)(F)F)c1C(=O)Nc1ccnc(C(F)(F)F)c1 [Compound I-73],0.5 to 2.5 µM
11,Cn1nc(-c2cnn3ccncc23)c(C(F)(F)F)c1C(=O)Nc1ccnc(C(F)(F)F)c1 [Compound I-74],> 10 µM
12,Cn1nc(-c2cc(O)ccc2Cl)c(C(F)(F)F)c1C(=O)Nc1ccnc(C(F)(F)F)c1 [Compound I-75],0.5 to 2.5 µM
13,CN(C)c1cc(-c2nn(C)c(C(=O)Nc3ccnc(C(F)(F)F)c3)c2C(F)(F)F)ccn1 [Compound I-76],> 10 µM
14,Cn1nc(-c2cnc(N)c3ccccc23)c(C(F)(F)F)c1C(=O)Nc1ccnc(C(F)(F)F)c1 [Compound I-77],0.5 to 2.5 µM
15,Cn1nc(-c2cccc3c(N)nccc23)c(C(F)(F)F)c1C(=O)Nc1ccnc(C(F)(F)F)c1 [Compound I-78],> 10 µM
16,Cc1ncccc1-c1nn(C)c(C(=O)Nc2ccnc(C(F)(F)F)c2)c1C(F)(F)F [Compound I-79],2.5 to 10 µM
17,Cc1cncc(-c2nn(C)c(C(=O)Nc3ccnc(C(F)(F)F)c3)c2C(F)(F)F)c1 [Compound I-80],> 10 µM
18,Cn1nc(-c2cncc(F)c2)c(C(F)(F)F)c1C(=O)Nc1ccnc(C(F)(F)F)c1 [Compound I-81],2.5 to 10 µM
19,Cn1nc(-c2cccc(S(C)(=O)=O)c2)c(C(F)(F)F)c1C(=O)Nc1ccnc(C(F)(F)F)c1 [Compound I-82],2.5 to 10 µM
20,Cn1nc(-c2ccc(F)nc2F)c(C(F)(F)F)c1C(=O)Nc1ccnc(C(F)(F)F)c1 [Compound I-83],2.5 to 10 µM
21,Cc1coc2c(-c3nn(C)c(C(=O)Nc4ccnc(C(F)(F)F)c4)c3C(F)(F)F)cccc12 [Compound I-84],0.5 to 2.5 µM
22,"Cn1nc(N2CCCc3ccccc32)c(C(F)(F)F)c1C(=O)Nc1ccnc(C(F)(F)F)c1 [Compound I-85, 3-(3,4-dihydroquinolin-1 (2H)-yl)-1-methyl-4-(trifluoromethyl)-N-(2-(trifluoromethyl)pyridin-4-yl)-1H-pyrazole-5-carboxamide]",0.5 to 2.5 µM

# Continued, values first:
row,IC50,SMILES
1,< 0.5 µM,Cn1nc(-c2cccc3c2OCO3)c(C(F)(F)F)c1C(=O)Nc1cnc(-n2nccn2)c(C#N)c1 [Compound I-43]
2,0.5 to 2.5 µM,Cn1nc(-c2cccc3c2OCCO3)c(C(F)(F)F)c1C(=O)Nc1ccnc(C(F)(F)F)c1 [Compound I-44]
3,< 0.5 µM,Cn1nc(-c2ccc(F)cc2Cl)c(C(F)(F)F)c1C(=O)Nc1ccnc(C(F)(F)F)c1 [Compound I-45]
4,0.5 to 2.5 µM,Cn1nc(-c2cccc3[nH]ncc23)c(C(F)(F)F)c1C(=O)Nc1ccnc(C(F)(F)F)c1 [Compound I-46]
5,< 0.5 µM,Cn1nc(-c2cccc3occc23)c(C(F)(F)F)c1C(=O)Nc1ccnc(C(F)(F)F)c1 [Compound I-47]
6,< 0.5 µM,Cn1nc(-c2c(Cl)ccc3c2OCO3)c(C(F)(F)F)c1C(=O)Nc1ccnc(C(F)(F)F)c1 [Compound I-49]
7,< 0.5 µM,Cn1nc(-c2ccc(F)c3c2OCO3)c(C(F)(F)F)c1C(=O)Nc1ccnc(C(F)(F)F)c1 [Compound I-50]
8,0.5 to 2.5 µM,COc1cccc(-c2nn(C)c(C(=O)Nc3ccnc(C(F)(F)F)c3)c2C(F)(F)F)c1OC [Compound I-52]
9,0.5 to 2.5 µM,Cn1nc(-c2cccc3c2NCCO3)c(C(F)(F)F)c1C(=O)Nc1ccnc(C(F)(F)F)c1 [Compound I-54]
10,0.5 to 2.5 µM,Cc1ccc2ncccc2c1-c1nn(C)c(C(=O)Nc2ccnc(C(F)(F)F)c2)c1C(F)(F)F [Compound I-55]
11,0.5 to 2.5 µM,Cn1nc(-c2cccc3c2ccn3C)c(C(F)(F)F)c1C(=O)Nc1ccnc(C(F)(F)F)c1 [Compound I-56]
12,< 0.5 µM,Cn1nc(-c2cccc3ncccc23)c(C(F)(F)F)c1C(=O)Nc1cnc(-n2nccn2)c(Cl)c1 [Compound I-58]
13,< 0.5 µM,Cn1nc(-c2ccccc2Cl)c(C(F)(F)F)c1C(=O)Nc1ccnc(C(F)(F)F)c1 [Compound I-59]
14,< 0.5 µM,Cn1nc(-c2cccc3ncsc23)c(C(F)(F)F)c1C(=O)Nc1ccnc(C(F)(F)F)c1 [Compound I-60]
15,0.5 to 2.5 µM,Cn1nc(-c2cccc3cnn(C)c23)c(C(F)(F)F)c1C(=O)Nc1ccnc(C(F)(F)F)c1 [Compound I-61]
16,< 0.5 µM,Cn1nc(-c2cccc3c(=O)[nH]ccc23)c(C(F)(F)F)c1C(=O)Nc1ccnc(C(F)(F)F)c1 [Compound I-63]
17,0.5 to 2.5 µM,Cn1nc(-c2cccn3ncnc23)c(C(F)(F)F)c1C(=O)Nc1ccnc(C(F)(F)F)c1 [Compound I-64]
18,< 0.5 µM,Cn1nc(-c2cccc3c2CNC3=O)c(C(F)(F)F)c1C(=O)Nc1ccnc(C(F)(F)F)c1 [Compound I-65]
19,0.5 to 2.5 µM,Cn1nc(-c2ccnc3ccsc23)c(C(F)(F)F)c1C(=O)Nc1ccnc(C(F)(F)F)c1 [Compound I-66]
20,0.5 to 2.5 µM,COc1cccc(-c2nn(C)c(C(=O)Nc3ccnc(C(F)(F)F)c3)c2C(F)(F)F)c1Cl [Compound I-68]
21,< 0.5 µM,Cn1nc(Nc2ccccc2)c(C(F)(F)F)c1C(=O)Nc1cnc(-n2nccn2)c(Cl)c1 [Compound I-86]
